Values of other authors as cited in patent US20100273829A1, “Methods for Treating Disorders Associated with Hyperlipidemia in a Mammal” (priority 2005, published 2010).
Entries after “also recorded” stand apart in the source; their conditions may differ. Where two headings read alike, the source gives them in different places.

Assays:
[1] = ezetimibe 10 mg/day added to maximal statin regimen (80 mg/day), hoFH patients

With `O=C(NC1CCN(CCCCC2(C(=O)NCC(F)(F)F)c3ccccc3-c3ccccc32)CC1)c1ccccc1-c1ccc(C(F)(F)F)cc1` [BMS-201038, N-(2,2,2-Trifluorethyl)-9-[4-[4-[[[4′-(trifluoromethyl)[1,1′biphenyl]-2-Yl]carbonyl]amino]-1-piperidinyl]butyl]9H-fluorene-9-carboxamide] as the compound, how does the adverse events (patients, 25 mg/day BMS-201038 monotherapy) read?
Its adverse events is “gastrointestinal perturbations, abnormalities in liver function, and hepatic steatosis; also recorded: gastrointestinal disorders, abnormalities in liver function and/or hepatic steatosis”.

Which “total reduction of LDL-C levels” value [1] does the source give for `O=C1[C@H](CC[C@H](O)c2ccc(F)cc2)[C@@H](c2ccc(O)cc2)N1c1ccc(F)cc1` [ezetimibe] here?
The value was 27%.

What does the source list for `Cc1cc(C)c2c3ccccc3n(Cc3ccc([C@@H](C(=O)N[C@H](CO)c4ccccc4)C4CCCC4)cc3)c2n1` [implitapide, (2S)-2-cyclopentyl-2-[4-[(2,4-dimethyl-9H-pyrido[2,3-b]indol-9-yl)methyl]phenyl]-N-[(1S)-2-hydroxy-1-phenylethyl]ethanamide]?
therapeutic efficacy (clinical studies, implitapide 80 mg/day or greater): therapeutically effective; adverse events (clinical studies, implitapide 80 mg/day or greater (80 mg/day, 160 mg/day)): gastrointestinal disturbances, abnormalities in liver function, and hepatic steatosis; also recorded: gastrointestinal disorders, abnormalities in liver function and/or hepatic steatosis
